Assays:
Format in all cases: in vivo
[1] = tested on: Potato Variety: Toyoshiro; assay: Example 5 drying stress tolerance imparting test (potato variety Toyoshiro); details: 3 weeks
Procedure: Other cultivation conditions were the same as the conditions of the drying stress test. Drying stress conditions: soil pF value: 2.3, 2.5, or 2.9, cultivation temperature: 23° C., relative humidity: 50%, illuminance: 5000 Lux (fluorescent light), light/dark cycle: 16 hours/8 hours (2) Cultivation Period: 3 weeks (3) Soil: Kureha gardening soil manufactured by Kureha Corporation (fertilizer components: N:P:K=0.4:1.9:0.6 g/kg soil) (4) The chemicals used and the amount of a treatment solution applied were the same as in Example 3. Method of Drying Stress Tolerance Imparting Test A planter (60 cm) was filled with Kureha gardening soil manufactured by Kureha Corporation (fertilizer components: N:P:K=0.4:1.9:0.6 g/kg soil) in a glass greenhouse, tubers of a “Thyoshiro” potato were cut in half: and 5 pieces thereof were planted in the planter, thinly covered with Kureha gardening soil, and sufficiently watered to allow the tubers to sprout. When the leaves in the 3-leaf stage fully unfolded, the Solarium tuberosu was relocated on a plant culture rack in an air-conditioned room, and a test was initiated. […] From immediately after the beginning of the test, a treatment solution of Table 1 was sprayed onto the leaves or applied to the underground portions once a week. […] Five specimens (per planter) were prepared for each of the test plot and the control plots, plant bodies were collected 3 weeks after the beginning of the test such that the roots were not cut, the soil was washed away with running water, the fresh plant body weights were measured, and a plant stress level and an extent of imparting plant stress tolerance were calculated according to Formula (ii) and (iii) above using the average of the weights.

“Momotaro” tomato [2] = assay: Standard test: standard extent of imparting plant salt stress tolerance; details: 100 ppm sprayed onto leaves 10 ml/specimen, NaCl 3510 ppm in tap water, fresh weight after 2 weeks vs salt-stressed untreated control plot 1
Procedure: Standard Test (I) Plant Preparation A 50-cell tray is filled with potting soil (fertilizer components: N:P:K=0.4:1.9:0.6 (g)/kg potting soil); and seeds of a “Momotaro” tomato (Takii Co., Ltd.) are sowed, thinly covered with potting soil, and sufficiently irrigated to allow the seeds to sprout. When the leaves in the 2-leaf stage are fully unfolded, the soil on the tomato roots is washed away with running water, and a test is performed. For the potting soil, Kureha gardening soil manufactured by Kureha Corporation may be used. (II) Test Condition Setting The environmental conditions are controlled such that the temperature is 23° C., the relative humidity is 50%, the illuminance is 5000 Lux, and the daily light-dark cycle includes a 16-hour light period and an 8-hour dark period. Such environmental conditions can be obtained by, for example, controlling the temperature in a room or a climate chamber where the temperature and the relative humidity can be controlled, and controlling illuminance by a fluorescent light or the like. […] (III) Treatment with Plant Stress Tolerance Imparting Composition […] A known surfactant or a like material that barely affects the plant may be used in the preparation of an aqueous dispersion. Test plot: An aqueous solution or an aqueous dispersion of a test compound (sugar derivative-type surfactant) (concentration: 100 ppm) is sprayed onto the leaves in an amount of 10 ml per tomato specimen. […] NaCl is added to a solution culture medium (creating a salt stress), but no test compound (plant stress tolerance imparting composition) is given to the tomato. Control plot 2: No NaCl is added to a solution culture medium (creating no salt stress), and no test compound (plant stress tolerance imparting composition) is given to the tomato. (IV) Calculation of Standard Extent of Imparting Plant Salt Stress Tolerance (%) […] The plant stress level (standard plant salt stress level) attained in the above-described standard test is about 130%. In this regard, the standard plant salt stress level can be calculated according to Formula (ii)′ below.

“Momotaro” tomato [3] = assay: Example 4 salt stress tolerance imparting test (tomato, tap water + NaCl); details: tap water + NaCl 3510 ppm, 2 weeks
Source text: NaCl concentration 3510 ppm (water potential by NaCl: […]) (4) Cultivation period: two weeks (5) Plant preparation: A 50-cell tray was filled with Kureha gardening soil manufactured by Kureha Corporation (fertilizer components: N:P:K=0.4:1.9:0.6 g/kg soil), and seeds of a “Momotaro” tomato were sowed, thinly covered with Kureha gardening soil, and sufficiently irrigated to allow the seeds to sprout. When the leaves in the 2-leaf stage fully unfolded, the soil on the tomato roots was carefully washed away with running water, and a test was performed. (6) The chemicals used and the concentration of a treatment solution were as in Example 1 (7) Amount of application: 10 ml/specimen for leaf spraying, 50 ml/specimen for fertigation Method of Salt Stress Tolerance Imparting Test […]

“Momotaro” tomato [4] = assay: Example 1 salt stress tolerance imparting test (tomato, hydroponic, Otsuka 1/2A + NaCl); details: 2 weeks
Procedure: (1) Salt stress-free test conditions: NaCl concentration (water potential by Nan): 0 ppm (0 MPa). Other cultivation conditions were as the same as the conditions of the drying stress test.
When the leaves in the 2-leaf stage fully unfolded, the soil on the tomato roots was carefully washed away with running water, and a test was performed.
Method of Salt Stress Tolerance Imparting Test
The environmental conditions in a climatic chamber were controlled so as to have a temperature of 23° C., an illuminance by a fluorescent light of 5000 Lux, and a daily light-dark cycle of a 16-hour light period and an 8-hour dark period. […] A treatment solution containing a compound of Table 1 in a specific concentration (the remainder was water) was prepared and sprayed onto the leaves or applied to the underground portion. In addition, a control plot to which no NaCl was added, not imposing a salt stress (this is a control plot for plant body weight 2 for Formula (ii) and is a stress-free control plot) and a control plot to which NaCl was added in various concentrations, imposing a salt stress, and to which the treatment solution was not applied (this is a control plot for plant body weight 1 for Formula (ii) and is a control plot including a salt stress) were prepared as controls. Ten specimens were prepared for each of the test plot and the control plots, and a plant stress level and an extent of imparting plant stress tolerance were calculated according to Formulas (II) above using as a fresh plant body weight the average of the fresh plant body weights of each specimen 2 weeks after the beginning of the test.

[5] = pF 2.3, leaf, 100 ppm once a week
[6] = pF 2.5, leaf, 100 ppm once a week
[7] = pF 2.9, leaf, 100 ppm once a week

Compound | Extent of imparting plant stress tolerance [1, 5] | Standard extent of imparting plant salt stress tolerance (“Momotaro” tomato [2]) | Extent of imparting plant stress tolerance (“Momotaro” tomato [3]; leaf, 100 ppm) | Extent of imparting plant stress tolerance (“Momotaro” tomato [4]; NaCl 3510 ppm, leaf, 100 ppm) | further results
OC[C@H]1O[C@H](OC[C@H]2O[C@H](O[C@]3(CO)O[C@H](CO)[C@@H](O)[C@@H]3O)[C@H](O)[C@@H](O)[C@@H]2O)[C@H](O)[C@@H](O)[C@H]1O [Comparative product 4, Raffinose, reference compound] | 103% | 102% | 102% | – | –
POE (6) sorbitan monooleic acid ester [Product of present invention 10] | 113% | 112% | 112% | 113% | –
POE (20) sorbitan monostearic acid ester [Product of present invention 14] | 115% | 114% | 114% | 116% | –
POE (20) sorbitan monolauric acid ester [Product of present invention 12] | 117% | 116% | 116% | 116% | Extent of imparting plant stress tolerance ([1]; pF 2.3, leaf, 200 ppm once a week): 120%; Extent of imparting plant stress tolerance (“Momotaro” tomato [3]; leaf, 200 ppm): 117%; Extent of imparting plant stress tolerance (“Momotaro” tomato [4]; NaCl 3510 ppm, leaf, 200 ppm): 120%
C[N+](C)(C)CC(=O)[O-] [Comparative product 3, Glycine betaine, reference compound] | 102% | 103% | 103% | 103% | –
Sucrose fatty acid ester (C18, HLB = 15) [Product of present invention 20] | 118% | 116% | 116% | 113% | –
O=C(O)[C@@H]1CCCN1 [Comparative product 2, Proline, reference compound] | 102% | 102% | 103% | – | Extent of imparting plant stress tolerance [1, 6]: 103%; Extent of imparting plant stress tolerance [1, 7]: 103%
POE (20) sorbitan monopalmitic acid ester [Product of present invention 13] | 118% | 116% | 116% | 117% | –
Sucrose fatty acid ester (C18, HLB = 9) [Product of present invention 18] | 115% | 113% | 113% | 112% | –
Alkyl (C12-14) polyglycoside [Product of present invention 16] | 121% | 117% | 117% | 115% | –
Sorbitan monooleic acid ester [Product of present invention 11] | 113% | 112% | 112% | 112% | –
Sucrose fatty acid ester (C16, HLB = 15) [Product of present invention 21] | 118% | 117% | 117% | 114% | –
Sucrose fatty acid ester (C18, HLB = 11) [Product of present invention 19] | 117% | 114% | 114% | 113% | –
POE (20) sorbitan monooleic acid ester [Product of present invention 1] | 113% | 113% | 113% | 113% | Extent of imparting plant stress tolerance ([1]; pF 2.3, leaf, 1 ppm once a week): 112%; Extent of imparting plant stress tolerance ([1]; pF 2.3, leaf, 10 ppm once a week): 113%; Extent of imparting plant stress tolerance ([1]; pF 2.3, leaf, 1000 ppm once a week): 119%; Extent of imparting plant stress tolerance ([1]; pF 2.3, underground portion, 100 ppm once a week): 134%; Extent of imparting plant stress tolerance [1, 6]: 115%; Extent of imparting plant stress tolerance ([1]; pF 2.5, underground portion, 100 ppm once a week): 127%; Extent of imparting plant stress tolerance [1, 7]: 124%; Extent of imparting plant stress tolerance ([1]; pF 2.9, underground portion, 100 ppm once a week): 134%; Extent of imparting plant stress tolerance (“Momotaro” tomato [3]; leaf, 1 ppm): 112%; Extent of imparting plant stress tolerance (“Momotaro” tomato [3]; leaf, 10 ppm): 113%; Extent of imparting plant stress tolerance (“Momotaro” tomato [3]; leaf, 1000 ppm): 119%; Extent of imparting plant stress tolerance (“Momotaro” tomato [3]; underground portion, 100 ppm): 130%; Extent of imparting plant stress tolerance (“Momotaro” tomato [4]; NaCl 1500 ppm, leaf, 100 ppm): 113%; Extent of imparting plant stress tolerance (“Momotaro” tomato [4]; NaCl 1500 ppm, underground portion, 100 ppm): 124%; Extent of imparting plant stress tolerance (“Momotaro” tomato [4]; NaCl 3510 ppm, leaf, 1 ppm): 111%; Extent of imparting plant stress tolerance (“Momotaro” tomato [4]; NaCl 3510 ppm, leaf, 10 ppm): 112%; Extent of imparting plant stress tolerance (“Momotaro” tomato [4]; NaCl 3510 ppm, leaf, 1000 ppm): 118%; Extent of imparting plant stress tolerance (“Momotaro” tomato [4]; NaCl 3510 ppm, underground portion, 100 ppm): 130%; Extent of imparting plant stress tolerance (“Momotaro” tomato [4]; NaCl 5000 ppm, leaf, 100 ppm): 125%; Extent of imparting plant stress tolerance (“Momotaro” tomato [4]; NaCl 5000 ppm, underground portion, 100 ppm): 135%
